The subject of assay [1] is In-Vitro Vascular Smooth Muscle of Rabbits. Briefly: Relaxant effect on in vitro rabbit vascular smooth muscle contraction induced by hyperkalemia solution. To be noted: for pEC50: Oryctolagus cuniculus; for relaxant effect against hyperkalemia solution contraction (in words): rabbit vascular smooth muscle.
For the next assay, the system named is α1 receptors. Briefly: Antagonism of α receptor agonist (noradrenaline / phenylephrine) cumulative contraction of rabbit aorta, pA2. The note with it: for PA2 value against Phenylephrine contraction: Phenylephrine cumulative contraction; for PA2 value against NA contraction: noradrenaline (NA) cumulative contraction. From the text: (§1) Cut the chest open quickly after stunning, strip out the descending aorta, then after removing the surrounding connective tissue and adipose tissue (if performed serotonin receptor antagonist experiments, endothelial cells should be removed using a smooth stainless steel bars), cut the vessels into 3-5 mm vascular ring, then pass the steel hook through the blood vessel ring, with one end is fixed to the vent hook and the other end connected to the tension transducer, then place the specimens into bath tube containing 20 mL of nutrient solution, and record tension change by tension transducer. Maintain tube temperature at 37±0.5° C., and pass bubbles (95% O2+5% CO2) into the solution as a speed of 1-2 bubbles/minute. Place an initial load of 1.5 g on the rings, and change nutrient every 20 minutes, then balance for 2 hours and start test after baseline readings are stabilized.
After the tension is stabilized, record a certain length of the curve, and add NA (10^−8-10^−4 mol/L) to the tube until a maximum response is achieved, and then record the curve. Then wash the specimen with K—H solution repeatedly, balance for 1 h, add compound II-36 (3×10^−7 mol/L), and 20 minutes later, add NA following a same procedure. Mark NA contraction as ordinate using maximum response as 100% base. […] The larger the PA2 value, the stronger the antagonist effect. It is calculated based on the values of the attached figures by software.
After the tension is stabilized, record a certain length of the curve, and add NA (10^−8-10^−4 mol/L) to the tube until a maximum response is achieved, and then record the curve. Then wash the specimens repeatedly with K—H solution, and refresh K—H solution every 20 minutes, and balance for 60 minutes to allow baseline values are stabilized; then add doxazosin (10^−7 mol/L) and after 15 minutes, add NA in the same way (10^−8-6×10^−5 mol/L). Mark NA contraction as ordinate using maximum response as 100% base. […] The PA2 value of positive control doxazosin is 7.52±0.04 against NA contraction of rabbit aorta.
After the tension is stabilized, record a certain length of the curve, and add NA (3×10^−7-6×10^−5 mol/L) to the tube until a maximum response is achieved, and then record the curve. Then wash the specimen with K—H solution repeatedly, balance for 1 h, add compound II-65 (3×10^−6 mol/L), and 20 minutes later, add NA (3×10^−7-3×10^−4 mol/L) following a same procedure. Mark NA contraction as ordinate using maximum response as 100% base. […] PA2 value of compound II-65 is 6.02±0.13 against NA contraction effect on rabbit aorta.
After above procedures, wash the specimen repeatedly with K—H solution, balance for 1 hour, add doxazosin (10^−7 mol/L), and add NA in the same way after 15 minutes. Mark NA contraction as ordinate using maximum response as 100% base. […] The PA2 value of positive control doxazosin is 7.16±0.24 against NA contraction of rabbit aorta.
After the tension is stabilized, record a certain length of the curve, and add Phenylephrine (10^−6-6×10^−3 mol/L) to the tube until a maximum response is achieved, and then record the curve. Then wash the specimen with K—H solution repeatedly, balance for 1 h, add compound II-68 (3×10^−8 mol/L), and 20 minutes later, add Phenylephrine following a same procedure. Mark Phenylephrine contraction as ordinate using maximum response as 100% base. […] PA2 value of compound II-68 is 8.45±0.03 against Phenylephrine contraction effect on rabbit aorta.

Assay [2] concerns In Vitro Vascular Smooth Muscle of Rabbits. Briefly: Relaxant effect on in vitro rabbit vascular smooth muscle contraction induced by adrenaline (AD). The note with it: for pEC50: Oryctolagus cuniculus; for relaxant effect against AD contraction (in words): rabbit vascular smooth muscle, AD 10^−5 mol/L.
Text: Krebs-Henseleit (K—H) physiological solution: NaCl 6.92 (concentration units), KCl 0.35, MgSO4 0.29, KH2PO4 0.16, CaCl2 0.28, NaHCO3 2.1, glucose 2.0 (g/L), pH 7.2.
Preparation of compound II-1 to II-87 solutions: Weigh a certain quality compound samples and dilute to concentrations (10^−10˜10^−3 mol/L) with distilled water, standby.
as §1
After tension readings are stabilized, record a certain length of tension curve, and add spasmogens agent AD (10^−5 mol/L) to induce contraction; if a maximum contract is achieved, wash the specimens thoroughly, and change K—H solution every 20 minutes, and then balance for 60 minutes; after baseline readings are stabilized, induce contract with spasmogens agent again. When the maximum contract in the later induction is consistent with the former induction, add compound II-1 to II-34 solutions (1×10^−10 to 1×10^−3 mol/L), II-35 to II-87 solutions (1×10^−8-1×10^−3 mol/L), and record the curves. Draw a dose-response curve using maximum relaxation response as 100%, relaxation percentage as ordinate and negative logarithms of the each concentration as abscissa.

The mark [3] stands for this setting: relaxation of rabbit aortic rings contracted by hyperkalemia solution (K+ 60 mmol/L).
[4] abbreviates: relaxation of rabbit aortic rings contracted by AD (10^−5 mol/L).

Experimental findings from US9802929B2, “Benzo five-membered nitrogen heterocyclic piperidine or piperazine derivatives and preparation methods and pharmaceutical compositions thereof” (Shenyang Haiwang Biotechnology Co., Ltd., priority 2012, dated 2017) are described below.

Structures are written as SMILES. pEC50: −log10 of the molar value.

For the compound `FC(F)(F)c1cccc(N2CCN(CCCCn3cnc4ccccc43)CC2)c1` [Compound II-36, 1-(4-(4-(3-trifluoromethylphenyl)piperazin-1-yl)butyl)-1H-benzimidazole], in assay [1] (setting [3]), the pEC50 is 5.34. In addition, in assay [1], the “relaxant effect against hyperkalemia solution contraction (in words)” value is given as “significant relaxant effect”. For the same compound, in the assay on α1 receptors, the “PA2 value against Phenylephrine contraction” value is on record as 7.37±0.08 and the “PA2 value against NA contraction” value came to 7.37±0.08. This compound gave a pEC50 in assay [2] (setting [4]) of 5.73. Further, in assay [2], the “relaxant effect against AD contraction (in words)” value is given as “most significant relaxation effects”.
Take `FC(F)(F)c1cccc(N2CCN(CCCCn3nnc4ccccc43)CC2)c1` [Compound II-65, 1-(4-(4-(3-trifluoromethylphenyl)piperazin-1-yl)butyl)-1H-benzotriazole]: the “relaxant effect against hyperkalemia solution contraction (in words)” value in assay [1] was “relatively significant relaxant effect”. Moreover, the “−logEC50” value was 5.55 ± 0.03 in assay [1] (setting [3]) and 6.19 ± 0.03 in assay [2] (setting [4]). Further, the “PA2 value against NA contraction” value in the assay on α1 receptors is on record as 6.02±0.13. In assay [2], the “relaxant effect against AD contraction (in words)” value was “most significant relaxation effects”.
`c1ccc2c(c1)nnn2CCCCN1CCN(c2nsc3ccccc23)CC1` [Compound II-68, 3-(4-(4-(1H-benzotriazol-1-yl)butyl)piperazin-1-yl)benzisothiazole]: the pEC50 in assay [1] (setting [3]) is 4.77; in assay [2] (setting [4]), 8.07. Besides, in the assay on α1 receptors, the “PA2 value against Phenylephrine contraction” value is given as 8.45±0.03. The “relaxant effect against AD contraction (in words)” value in assay [2] is “most significant relaxation effects”.
